Results reported in patent US12240853B2, “Compounds useful in HIV therapy” (GlaxoSmithKline Intellectual Property (No.2) Limited, priority 2019, dated 2025).
Read-outs that look alike come from different tables or passages of the source.

Assay: Example 18 cynomolgus monkey PK study (SC and IM)
Format: in vivo, cynomolgus monkeys
Settings: male, cynomolgus monkey, plasma, read-out: Example 18 plasma concentrations
Excerpt: Example 18 referenced herein was made in accordance with Synthesis B. Six male cynomolgus monkeys (+1 spare) were selected from the Testing Facility's colony of non-naïve animals. The animals were assigned to the study based on acceptable health as determined by a Testing Facility veterinarian. Six animals were selected and placed into two groups of three animals each. Fasting of the animals before or after dosing was not required.
[…] […] The animals were manually restrained for dosing and were not sedated. The dose sites were clipped of hair and wiped with alcohol before dosing. All dosing was performed as detailed in the study protocol and was completed without incident.
Blood samples were collected from the study animals as detailed in the sample collection Table 39 below.
Blood samples were collected by venipuncture of a cephalic vein. For PK, blood was transferred to a blood collection tube containing NaF/Na2EDTA anticoagulant, mixed by inversion, and maintained on wet ice until processing. The blood samples were centrifuged at 2200×g for 10 minutes at 5° C. to isolate plasma. The resulting plasma samples were transferred to individual polypropylene tubes in a 96-well plate format and immediately placed on dry ice until storage at nominally −20° C. prior to shipment for analysis.
The PK plasma samples were analyzed approximately every two weeks by the Testing Facility to determine the concentration of Example 18 (prodrug) and parent using an LC-MS/MS Research Grade Assay (RGA-1) with sensitivity to 0.1 ng/mL. Following interim review of sample analysis data, analysis for Example 18 (prodrug) was discontinued after the Day 57 sample collections. The bioanalytical report and sample concentration data are presented in Tables 40 and 41, and mean concentration-time profiles are shown in FIGS. 29 and 30

[1] = intramuscular, 20 mg/kg equivalent of EFdA, IM 20 mg/kg equivalent of EFdA, Monkey 2001
[2] = intramuscular, 20 mg/kg equivalent of EFdA, IM 20 mg/kg equivalent of EFdA, Monkey 2002
[3] = intramuscular, 20 mg/kg equivalent of EFdA, IM 20 mg/kg equivalent of EFdA, Monkey 2003
[4] = sc, 20 mg/kg, SC 20 mg/kg equivalent of EFdA, Mean
[5] = sc, 20 mg/kg, SC 20 mg/kg equivalent of EFdA, Monkey 1001
[6] = sc, 20 mg/kg, SC 20 mg/kg equivalent of EFdA, Monkey 1002 (column 3)
[7] = sc, 20 mg/kg, SC 20 mg/kg equivalent of EFdA, Monkey 1002

## C#C[C@]1(COC(=O)CCCCCCCCC)O[C@@H](n2cnc3c(N)nc(F)nc32)C[C@@H]1OC(=O)CCCCCCCCC [Example 18, (2R,3S,5R)-5-(6-amino-2-fluoro-9H-purin-9-yl)-2-((decanoyloxy)methyl)-2-ethynyltetrahydrofuran-3-yl Decanoate]
[1]
  concentration at 0.208 days: 51.3 ng/mL
  concentration at 0.292 days: 30.1 ng/mL
  concentration at 1 days: 6.89 ng/mL
  concentration at 2 days: 0.652 ng/mL
  concentration at 3 days: 0.379 ng/mL
  concentration at 8 days: 0.203 ng/mL
  concentration at 10 days: 0.156 ng/mL
  concentration at 17 days: 0.135 ng/mL
  concentration at 19 days: 0.119 ng/mL
  concentration at 22 days: 0.146 ng/mL
  concentration at 29 days: 0.155 ng/mL
[2]
  concentration at 0.021 days: 40.2 ng/mL
  concentration at 0.042 days: 82.6 ng/mL
  concentration at 0.125 days: 363 ng/mL
  concentration at 0.208 days: 692 ng/mL
  concentration at 0.292 days: 821 ng/mL
  concentration at 1 days: 110 ng/mL
  concentration at 2 days: 0.674 ng/mL
  concentration at 3 days: 0.533 ng/mL
  concentration at 8 days: 0.248 ng/mL
  concentration at 10 days: 0.251 ng/mL
  concentration at 17 days: 0.16 ng/mL
  concentration at 19 days: 0.149 ng/mL
  concentration at 22 days: 0.114 ng/mL
  concentration at 25 days: 0.125 ng/mL
  concentration at 29 days: 0.135 ng/mL
[3]
  concentration at 0.021 days: 1.93 ng/mL
  concentration at 0.042 days: 0.79 ng/mL
  concentration at 0.125 days: 3.31 ng/mL
  concentration at 0.208 days: 5.27 ng/mL
  concentration at 0.292 days: 6.42 ng/mL
  concentration at 1 days: 2.08 ng/mL
  concentration at 2 days: 0.387 ng/mL
  concentration at 3 days: 0.63 ng/mL
  concentration at 8 days: 0.171 ng/mL
  concentration at 10 days: 0.19 ng/mL
  concentration at 17 days: 0.154 ng/mL
  concentration at 19 days: 0.129 ng/mL
  concentration at 22 days: 0.113 ng/mL
  concentration at 25 days: 0.151 ng/mL
intramuscular, 20 mg/kg equivalent of EFdA, IM 20 mg/kg equivalent of EFdA, Monkey 2003, 46 days
  concentration at 46 days: 0.105 ng/mL
[4]
  concentration at 0.021 days: 0.235 ng/mL
  concentration at 0.042 days: 0.905 ng/mL
  concentration at 0.125 days: 3.94 ng/mL
  concentration at 0.208 days: 4.95 ng/mL
  concentration at 0.292 days: 4.53 ng/mL
  concentration at 1 days: 1.12 ng/mL
  concentration at 2 days: 0.405 ng/mL
  concentration at 3 days: 0.312 ng/mL
  concentration at 8 days: 0.117 ng/mL
  concentration at 10 days: 129 ng/mL
[5]
  concentration at 0.021 days: 49.4 ng/mL
  concentration at 0.042 days: 70.3 ng/mL
  concentration at 0.125 days: 149 ng/mL
  concentration at 0.208 days: 92.8 ng/mL
  concentration at 0.292 days: 146 ng/mL
  concentration at 1 days: 36.5 ng/mL
  concentration at 2 days: 0.734 ng/mL
  concentration at 3 days: 0.694 ng/mL
  concentration at 10 days: 0.146 ng/mL
[6]
  concentration at 0.021 days: 0.133 ng/mL
  concentration at 0.042 days: 0.179 ng/mL
  concentration at 0.125 days: 2.29 ng/mL
  concentration at 0.208 days: 1.91 ng/mL
  concentration at 0.292 days: 2.38 ng/mL
  concentration at 1 days: 0.641 ng/mL
  concentration at 2 days: 0.579 ng/mL
  concentration at 3 days: 0.396 ng/mL
  concentration at 8 days: 0.131 ng/mL
  concentration at 10 days: 0.146 ng/mL
[7]
  concentration at 0.021 days: 0.337 ng/mL
  concentration at 0.042 days: 1.63 ng/mL
  concentration at 0.125 days: 5.59 ng/mL
  concentration at 0.208 days: 7.99 ng/mL
  concentration at 0.292 days: 6.67 ng/mL
  concentration at 1 days: 1.6 ng/mL
  concentration at 2 days: 0.23 ng/mL
  concentration at 3 days: 0.228 ng/mL
  concentration at 8 days: 0.102 ng/mL
  concentration at 10 days: 0.111 ng/mL
